# Test system: mechanical hyperalgesia after nerve ligation
# Test: Neuropathic pain model, spinal nerve constriction, von Frey paw withdrawal threshold
# Format: in vivo, rat
# Conditions: 20 mg/kg po, tested 3 hours after dosing
# Protocol: Adult male Sprague-Dawley rats received unilateral constriction of the L6 nerve to produce chronic nerve injury. Following recovery from surgery (3–7 days post operative) animals were tested for paw withdrawal threshold to mechanical stimuli applied to the affected paw. This was determined by the application of calibrated von Frey monofilaments to the plantar surface of each hindpaw. Only animals with a 50% decrease in withdrawal threshold in the ligated paw were employed in the study, and were randomly assigned to one of 6 groups: three groups receiving one of three doses of HP 184 (0.3, 3 and 20 mg/kg, po), a fourth group receiving a single dose of another compound referred to MDL (10 mg/kg, ip), a fifth group receiving gabapentin (90 mg/kg, sc), and a sixth group receiving vehicle only. Behavioral testing occurred 45 minutes following the gabapentin (90 mg/kg, sc), and 3 hours following the HP 184, MDL, and vehicle. A difference score between the ligated and non-ligated paw withdrawal thresholds is calculated for each animal, and these differences were subjected to ANOVA with group as the main factor. […] Analysis was between/within repeated measures ANOVA. […]
smiles,measurement,value
"CCCN(c1ccncc1F)n1cc(C)c2ccccc21 [HP184, N-(3-fluoro-4-pyridinyl)-N-propyl-3-methyl-1H-indole-1-amine]","mechanical hyperalgesia, difference of ligated minus normal paw withdrawal threshold, FIG. 10",dose-response attentuation of L5 ligation mechanical hyperlagesia
